“Also recorded” adds a separate entry of the source. Where two headings read alike, the source gives them in different places.
Experiments:
[1] = system: N, multiformis; settings: cited from earlier work
[2] = system: N. europaea; settings: cited from earlier work
[3] = system: N. mobilis; settings: cited from earlier work
[4] = system: Nitrosospira sp. strain AV; settings: cited from earlier work
[5] = molecular target: T1, ammonia monooxygenase (Nitrosomonas europaea, UniProt Q04507+Q04508); settings: cited from earlier work
T1 construct: endogenous in cells; host or cells: autotrophic ammonia oxidizing bacteria (AAOB), mixed and unspecified, e.g. in waste water
T1 sequence (Q04507 1-276): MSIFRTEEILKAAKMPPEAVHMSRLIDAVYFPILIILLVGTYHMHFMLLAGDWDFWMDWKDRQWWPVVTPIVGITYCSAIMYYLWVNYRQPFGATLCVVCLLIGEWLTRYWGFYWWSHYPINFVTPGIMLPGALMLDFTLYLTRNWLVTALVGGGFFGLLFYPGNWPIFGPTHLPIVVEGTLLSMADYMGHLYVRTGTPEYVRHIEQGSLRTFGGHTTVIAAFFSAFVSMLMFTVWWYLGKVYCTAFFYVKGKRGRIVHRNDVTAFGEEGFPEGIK
T1 sequence (Q04508 26-420): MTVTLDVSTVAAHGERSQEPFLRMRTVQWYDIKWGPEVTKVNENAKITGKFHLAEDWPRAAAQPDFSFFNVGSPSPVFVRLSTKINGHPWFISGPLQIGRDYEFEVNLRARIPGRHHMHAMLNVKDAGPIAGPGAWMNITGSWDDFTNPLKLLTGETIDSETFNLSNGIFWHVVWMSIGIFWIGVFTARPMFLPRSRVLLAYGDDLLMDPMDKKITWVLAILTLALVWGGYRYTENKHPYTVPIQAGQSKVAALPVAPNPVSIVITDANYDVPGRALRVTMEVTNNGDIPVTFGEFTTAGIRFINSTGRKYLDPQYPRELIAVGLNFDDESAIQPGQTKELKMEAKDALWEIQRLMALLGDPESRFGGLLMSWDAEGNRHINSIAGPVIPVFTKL

[6] = system: local brachial artery vasodilatation; settings: bolus infusion, cited from earlier work
[7] = system: local brachial artery vasodilatation; assay: Local brachial artery vasodilatation after bolus infusion (Rassaf et al.); format: in vivo, human; settings: for relative effectiveness (intravenous NO : SNP : GSNO): ratio, intravenous NO = 1
Description: SNP has also been compared to intravenous NO, where intravenous NO, SNP, and S—NO-glutathione (GSNO) were shown by Rassaf et al. to have relative “maximally effective doses” administered as bolus infusions in local brachial artery vasodilatation of 6 μM, 34 nM, and 5 nM respectively. (Rassaf et al., Evidence for in vivo transport of bioactive nitric oxide in human plasma, J. Clin. Invest. 109:1241-1248 (2002).) This puts the relative effectiveness of intravenous NO, SNP, and GSNO at 1:176:1200. There were significant differences in the temporal course of vasodilatation induced through the above treatments. […] Thus GSNO is roughly 7 times more “effective” at getting “NO active species” to peripheral GC than is SNP. Presumably then, a dose of about 0.1 μM/kg/hr of GSNO would have a vasodilatation effect equivalent to 0.75 μM/kg/hr SNP. The basal nitrate excretion is about 1 μM/kg/hr. If we assume that the vasodilatory effects of 0.75 μ/kg/hr SNP are on the “same order” as the indigenous NO already produced, then the 0.1 μkg/hr GSNO represents an increase in “effective NO” of […] over basal levels.

[8] = system: Human Mast Cell Adhesion; settings: cited from earlier work
[9] = system: NOS; settings: chronic inhibition of NOS; cited from earlier work
[10] = system: NOS; settings: horse, cited from earlier work
[11] = system: NOS; settings: chronic inhibition of NOS; cited from earlier work; remark: listed apart in the source
[12] = system: NO synthesis; settings: in vivo; cited from earlier work
[13] = system: NOS; settings: in vivo; cited from earlier work
[14] = type 2 diabetics; cited from earlier work
[15] = hyperbaric O2; cited from earlier work
[16] = molecular target: T2, guanylyl cyclase (GC) (Homo sapiens, UniProt Q02153); settings: read-out: apparent EC50 for guanylyl cyclase activation, cited from earlier work
T2 construct: Soluble Guanylyl Cyclase, in Intact Cerebellar Cells; host or cells: intact cerebellar cells (endogenous)
T2 sequence (Q02153 1-619): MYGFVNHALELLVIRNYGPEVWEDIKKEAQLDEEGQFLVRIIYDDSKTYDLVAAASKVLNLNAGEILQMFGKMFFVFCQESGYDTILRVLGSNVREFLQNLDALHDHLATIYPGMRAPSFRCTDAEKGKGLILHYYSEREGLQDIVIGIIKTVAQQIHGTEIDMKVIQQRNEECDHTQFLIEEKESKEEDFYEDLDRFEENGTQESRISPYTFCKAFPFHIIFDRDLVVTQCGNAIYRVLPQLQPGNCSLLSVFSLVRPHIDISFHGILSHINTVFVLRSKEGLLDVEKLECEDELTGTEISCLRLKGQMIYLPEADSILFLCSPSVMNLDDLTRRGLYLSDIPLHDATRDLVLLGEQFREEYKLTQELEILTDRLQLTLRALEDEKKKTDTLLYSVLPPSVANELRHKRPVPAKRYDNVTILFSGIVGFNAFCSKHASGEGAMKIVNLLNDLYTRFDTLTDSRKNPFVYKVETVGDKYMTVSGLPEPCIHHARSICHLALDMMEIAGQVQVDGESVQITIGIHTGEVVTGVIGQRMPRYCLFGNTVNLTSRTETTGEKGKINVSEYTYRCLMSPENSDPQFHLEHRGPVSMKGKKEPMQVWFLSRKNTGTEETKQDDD
T2 sequence (Q02108 1-690 partner): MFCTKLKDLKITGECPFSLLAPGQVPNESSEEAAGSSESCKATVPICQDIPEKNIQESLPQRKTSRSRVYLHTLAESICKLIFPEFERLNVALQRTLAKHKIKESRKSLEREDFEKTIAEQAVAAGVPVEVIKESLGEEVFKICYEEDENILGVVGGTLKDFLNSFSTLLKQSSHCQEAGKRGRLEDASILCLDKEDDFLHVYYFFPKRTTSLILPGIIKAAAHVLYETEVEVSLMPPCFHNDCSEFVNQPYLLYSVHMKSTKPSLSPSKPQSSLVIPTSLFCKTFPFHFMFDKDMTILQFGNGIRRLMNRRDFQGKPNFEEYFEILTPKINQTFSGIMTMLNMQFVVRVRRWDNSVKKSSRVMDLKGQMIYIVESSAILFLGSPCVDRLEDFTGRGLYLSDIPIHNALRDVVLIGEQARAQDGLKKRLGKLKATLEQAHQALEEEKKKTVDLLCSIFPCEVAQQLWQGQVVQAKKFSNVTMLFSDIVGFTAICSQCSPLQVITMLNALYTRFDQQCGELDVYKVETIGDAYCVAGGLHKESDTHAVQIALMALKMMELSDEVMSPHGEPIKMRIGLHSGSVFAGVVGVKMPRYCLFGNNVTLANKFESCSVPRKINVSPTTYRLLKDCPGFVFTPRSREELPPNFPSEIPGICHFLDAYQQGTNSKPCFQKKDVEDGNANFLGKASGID

[17] = inhaled NO at 80 ppm in >90% O2 (16 μM/min=14 μM/kg/hr); cited from earlier work
[18] = compared with estrogen; cited from earlier work
[19] = system: AAOB; settings: cited from earlier work
[20] = system: murine macrophage cells (RAW264); settings: CP 2 μM/L in Krebs-Ringer-phosphate, absence of hemoglobin; cited from earlier work
[21] = physiologic concentrations of CP; cited from earlier work

CCCCCCCCCCC(C)c1ccc(S(=O)(=O)O)cc1 (centres unmarked) [4-(2-dodecyl)benzenesulfonic acid]
50% inhibitory concentration (IC50) [1]: 1 µg/mL (ppm) | 50% inhibitory concentration (IC50) [2]: 5 µg/mL (ppm) | 50% inhibitory concentration (IC50) [3]: 3 µg/mL (ppm) | 50% inhibitory concentration (IC50) [4]: 1 µg/mL (ppm)

C=CCNC(N)=S [Allylthiourea]
inhibition of ammonia monooxygenase [5]: very effective at inhibiting ammonia monooxygenase

N[C@@H](CCC(=O)N[C@@H](CSN=O)C(=O)NCC(=O)O)C(=O)O [GSNO, S-nitrosoglutathione]
maximally effective dose, local brachial artery vasodilatation [6]: 0.005 µM | effectiveness at getting NO active species to peripheral GC relative to SNP ([7]; GSNO versus SNP): roughly 7 times | relative effectiveness (intravenous NO : SNP : GSNO) [7]: 1200 | mast cell adhesion [8]: strongly down regulated

COC(=O)[C@@H](N)CCCNC(=N)N[N+](=O)[O-] [L-NAME, N(G)-nitro-L-arginine methyl ester]
total (pancreatic islet) NO production [9]: can increase NO levels at particular sites; also recorded: increases total pancreatic islet NO production | VCO2max ([10]; L-NAME group (control 62.5)): 61.0 L/min | reduction of cardiac output ([10]; L-NAME group): 12% | fibrosis of heart and kidneys [11]: generalized fibrosis of the heart and kidneys

NC(=NCCC[C@H](N)C(=O)O)N[N+](=O)[O-] [L-NNA, N-nitro-L arginine]
reduction in basal temperature following hypoxia [12]: greatly diminished | wake-sleep differences in cerebral blood flow [13]: abolishes wake-sleep differences in cerebral blood flow

N=C(N)NCCC[C@H](N)C(=O)O [L-arginine]
forearm blood flow [14]: increases forearm blood flow | insulin sensitivity [14]: increases insulin sensitivity | latency to seizure [15]: increase the latency to seizure

[N]=O [NO, nitric oxide]
maximally effective dose, local brachial artery vasodilatation ([6]; intravenous): 6 µM | EC50 ([16]; rapid (˜100 ms) activation): ~45 nM | EC50 ([16]; slow (˜1 to 10 sec) activation): ~20 nM | relative effectiveness (intravenous NO : SNP : GSNO) [7]: 1 | change in mean arterial pressure [17]: no change in mean arterial pressure

O=[N+]([O-])OCC(CO[N+](=O)[O-])O[N+](=O)[O-] [nitroglycerin]
prevention of bone loss [18]: as effective as estrogen to prevent bone loss

S-nitroso-N-acetylpenicilamine [SNAP]
latency to seizure [15]: significantly shortens

linear alkylbenzene sulfonates [LAS]
toxicity to AAOB [19]: toxic to AAOB at ppm levels | toxicity to AAOB ([19]; listed as linear alkyl benzene sulfonate detergents): killed by ppm levels

B1: CP: ceruloplasmin, the main Cu containing serum protein (protein, UniProt P00450 20-1065, looked up)
Ceruloplasmin: KEKHYYIGIIETTWDYASDHGEKKLISVDTEHSNIYLQNGPDRIGRLYKKALYLQYTDETFRTTIEKPVWLGFLGPIIKAETGDKVYVHLKNLASRPYTFHSHGITYYKEHEGAIYPDNTTDFQRADDKVYPGEQYTYMLLATEEQSPGEGDGNCVTRIYHSHIDAPKDIASGLIGPLIICKKDSLDKEKEKHIDREFVVMFSVVDENFSWYLEDNIKTYCSEPEKVDKDNEDFQESNRMYSVNGYTFGSLPGLSMCAEDRVKWYLFGMGNEVDVHAAFFHGQALTNKNYRIDTINLFPATLFDAYMVAQNPGEWMLSCQNLNHLKAGLQAFFQVQECNKSSSKDNIRGKHVRHYYIAAEEIIWNYAPSGIDIFTKENLTAPGSDSAVFFEQGTTRIGGSYKKLVYREYTDASFTNRKERGPEEEHLGILGPVIWAEVGDTIRVTFHNKGAYPLSIEPIGVRFNKNNEGTYYSPNYNPQSRSVPPSASHVAPTETFTYEWTVPKEVGPTNADPVCLAKMYYSAVEPTKDIFTGLIGPMKICKKGSLHANGRQKDVDKEFYLFPTVFDENESLLLEDNIRMFTTAPDQVDKEDEDFQESNKMHSMNGFMYGNQPGLTMCKGDSVVWYLFSAGNEADVHGIYFSGNTYLWRGERRDTANLFPQTSLTLHMWPDTEGTFNVECLTTDHYTGGMKQKYTVNQCRRQSEDSTFYLGERTYYIAAVEVEWDYSPQREWEKELHHLQEQNVSNAFLDKGEFYIGSKYKKVVYRQYTDSTFRVPVERKAEEEHLGILGPQLHADVGDKVKIIFKNMATRPYSIHAHGVQTESSTVTPTLPGETLTYVWKIPERSGAGTEDSACIPWAYYSTVDQVKDLYSGLIGPLIVCRRPYLKVFNPRRKLEFALLFLVFDENESWYLDDNIKTYSDHPEKVNKDDEEFIESNKMHAINGRMFGNLQGLTMHVGDEVNWYLMGMGNEIDLHTVHFHGHSFQYKHRGVYSSDVFDIFPGTYQTLEMFPRTPGIWLLHCHVTDHIHAGMETTYTVLQNEDTKSG
conversion of authentic NO to RSNO (recovered NAC—NO) [20]: ≤ 33% | increase in formation of GSNO from NO and GSH [21]: approximately 100 times

Reference: patent US20070148136A1, “Methods of using ammonia oxidizing bacteria” (priority 2003, published 2007)
